Experimental findings from article PMC3082897 (2010) are described below.

Like-named read-outs stand apart in the source and are kept apart here.

Data set [1] deals with T1, UMPKmt (uridine monophosphate kinase, Rv2883c) (Mycobacterium tuberculosis, UniProt P9WHK5). Kind of data set: coupled spectrophotometric kinase assay. It counts as biochemical.
Target sequence in this assay (P9WHK5 whole entry, looked up): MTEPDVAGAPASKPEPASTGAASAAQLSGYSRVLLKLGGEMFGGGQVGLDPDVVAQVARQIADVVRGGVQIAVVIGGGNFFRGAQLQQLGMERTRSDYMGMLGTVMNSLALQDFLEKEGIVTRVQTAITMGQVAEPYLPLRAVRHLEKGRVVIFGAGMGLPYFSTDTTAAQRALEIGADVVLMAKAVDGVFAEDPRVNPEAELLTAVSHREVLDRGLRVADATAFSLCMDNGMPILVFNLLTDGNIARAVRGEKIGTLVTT
In data set [2] the test system is O=c1ccn([C@@H]2O[C@H](COP(=O)(O)O)[C@@H](O)[C@H]2O)c(=O)[nH]1. Briefly: purified protein.
The target in data set [3] is T1, UMPKmt (uridine monophosphate kinase, Rv2883c). Briefly: X-ray crystal structure. It counts as biochemical.
Target sequence in this assay (P9WHK5 whole entry): as the sequence (P9WHK5 whole entry, looked up) above
Data set [4] has the same target. Kind of data set: coupled spectrophotometric kinase assay. It counts as biochemical. The source holds these as a separate data set.
Target sequence in this assay (P9WHK5 whole entry, looked up): as above
Data set [5] has the same target. Kind of data set: coupled spectrophotometric kinase assay. It counts as biochemical. This is another data set of the same source.
Target sequence in this assay (P9WHK5 whole entry, looked up): as above

For the molecule `O=c1[nH]c(=O)n([C@@H]2O[C@H](COP(=O)(O)OP(=O)(O)OP(=O)(O)O)[C@@H](O)[C@H]2O)cc1Br` [5Br-UTP], the IC50 in data set [1] came out at 100 µM.
`O=c1[nH]c(=O)n([C@@H]2O[C@H](COP(=O)(O)OP(=O)(O)OP(=O)(O)O)[C@@H](O)[C@H]2O)cc1I` [5I-UTP] registered an IC50 in data set [1] of 20 µM.
“UMPKmt (uridine monophosphate kinase, Rv2883c) (Mycobacterium tuberculosis H37Rv)”: in data set [2], the Km is 19.6 ± 1.8 µM.
`Nc1nc2c(ncn2[C@@H]2O[C@H](COP(=O)(O)OP(=O)(O)OP(=O)(O)O)[C@@H](O)[C@H]2O)c(=O)[nH]1` [GTP] displayed an EC50 in data set [3] of 100 µM.
Turning to `Nc1nc2c(ncn2[C@H]2C[C@H](O)[C@@H](COP(=O)(O)OP(=O)(O)OP(=O)(O)O)O2)c(=O)[nH]1` [dGTP], in data set [4], the “coupled spectrophotometric kinase assay (activation, similar to GTP)” value was “dGTP, Mant-GTP and 6-methylthio GTP exhibited similar properties to GTP in terms of both affinity and extent of activation”.
Molecule `O=c1ccn([C@H]2C[C@H](O)[C@@H](COP(=O)(O)OP(=O)(O)OP(=O)(O)O)O2)c(=O)[nH]1` [dUTP] registered an IC50 in data set [1] of 240 µM.
For the molecule `Cc1cn([C@H]2C[C@H](O)[C@@H](COP(=O)(O)OP(=O)(O)OP(=O)(O)O)O2)c(=O)[nH]c1=O` [dTTP], the IC50 in data set [1] came out at 400 µM.
For `O=c1ccn([C@@H]2O[C@H](COP(=O)(O)OP(=O)(O)OP(=O)(O)O)[C@@H](O)[C@H]2O)c(=O)[nH]1` [UTP], the IC50 in data set [5] turned out to be 100 µM.

The IC50 is the concentration that gives 50% inhibition. A lower IC50 goes with greater potency in that assay. As a reminder, the Km is the concentration of substrate that gives half-maximal velocity. As usually defined, the EC50 is the concentration needed to bring the measured effect to its halfway point. A high value points to lower potency in that assay.
